Results from patent EP0019589A1, “Tripeptide derivatives and their use in a process for determining enzymes” (Pentapharm A.G., priority 1979, dated 1980).
Non-standard residues stand in square brackets, D forms with d. Residues, ends and D or L forms follow the SMILES beside them. *: point of attachment. dCha = N[C@H](CC1CCCCC1)C(=O)O; dChg = N[C@@H](C(=O)O)C1CCCCC1; dPhg = N[C@@H](C(=O)O)c1ccccc1; pNA = O=[N+]([O-])c1ccc(N*)cc1; Phg = N[C@H](C(=O)O)c1ccccc1; dNva = CCC[C@@H](N)C(=O)O

How the values were obtained:
Type in all cases: biochemical
[1] = molecular target: T1, Urinkallikrein (Homo sapiens, UniProt P06870); assay: Cleavage of chromogenic substrate by urinary kallikrein in human urine; conditions: 1 ml human urine (pooled morning urine of healthy persons), per min; Substratkonzentration 2 x 10^-4 molar
T1 construct: 1 ml Urin und 1 ml TRIS-Imidazol-Puffer mit pH 7,9; from tissue; host or cells: human urine

[2] = molecular target: T2, Submandibularis-Kallikrein (Homo sapiens, UniProt P06870); assay: Cleavage of chromogenic substrate by submandibular (glandular) kallikrein in human sputum; conditions: 1 ml human sputum, per min; Substratkonzentration 2 x 10^-4 molar
T2 construct: Man mischt 0,5 ml Sputum mit 2 ml TRIS-Imidazol-Puffer; from tissue; host or cells: human sputum
In short: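 Sputum mixed with TRIS-imidazole buffer (ionic strength 1.0), preincubated 5 min at 37°C and centrifuged; supernatant incubated with aqueous substrate solution (2 x 10^-3 M, stock). p-Nitroaniline release followed continuously at 405 nm for 5-10 min; activity expressed as mU per ml sputum from ΔOD/min.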

[3] = molecular target: T3, Humanplasmin (Homo sapiens, UniProt P00747); assay: Cleavage of chromogenic substrate by human plasmin; conditions: 1 CU-Einheit human plasmin, per min; Substratkonzentration 2 x 10^-4 molar
T3 construct: da bei der Aktivierung aus 1 Molekül Plasminogen 1 Molekül Plasmin entsteht

[4] = molecular target: T4, Humanthrombin (Homo sapiens, UniProt P00734); assay: Cleavage of chromogenic substrate by human NIH thrombin; conditions: 1 NIH-Einheit human thrombin, per min; Substratkonzentration 2 x 10^-4 molar
T4 construct: Humanplasmin und hu-manem NIH-Thrombin
In short: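 Thrombin hydrolysis of chromogenic p-nitroanilide substrate read spectrophotometrically at 405 nm; fluorogenic naphthylamine, methylcoumarylamine or di(methoxycarbonyl)phenylamine substrates read continuously by fluorescence emission at 400-470 nm. Activity taken as product formed per unit time; 1 µmol product/min defined as 1 enzyme unit for a given substrate.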

T3 sequence (P00747 581-810 limits assumed): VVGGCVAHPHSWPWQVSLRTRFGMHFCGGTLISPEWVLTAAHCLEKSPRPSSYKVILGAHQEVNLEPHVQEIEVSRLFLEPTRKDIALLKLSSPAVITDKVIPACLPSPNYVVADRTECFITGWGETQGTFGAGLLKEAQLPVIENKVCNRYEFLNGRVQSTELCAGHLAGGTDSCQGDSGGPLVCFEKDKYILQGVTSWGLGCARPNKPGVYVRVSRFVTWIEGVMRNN
T3 sequence (P00747 97-580 partner limits assumed): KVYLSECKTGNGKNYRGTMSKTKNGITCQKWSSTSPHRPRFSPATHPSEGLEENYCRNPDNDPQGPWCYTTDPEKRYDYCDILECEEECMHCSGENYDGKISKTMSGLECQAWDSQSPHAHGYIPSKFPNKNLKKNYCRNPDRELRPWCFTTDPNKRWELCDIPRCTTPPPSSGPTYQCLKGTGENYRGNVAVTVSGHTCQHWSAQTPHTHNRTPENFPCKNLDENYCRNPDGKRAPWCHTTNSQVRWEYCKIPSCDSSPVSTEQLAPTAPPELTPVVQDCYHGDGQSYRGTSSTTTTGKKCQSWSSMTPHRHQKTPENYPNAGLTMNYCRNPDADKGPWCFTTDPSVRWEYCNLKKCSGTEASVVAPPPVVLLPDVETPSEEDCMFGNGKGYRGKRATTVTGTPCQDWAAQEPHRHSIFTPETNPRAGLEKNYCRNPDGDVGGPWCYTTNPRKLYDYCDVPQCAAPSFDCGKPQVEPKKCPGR
T1 sequence (P06870 25-262): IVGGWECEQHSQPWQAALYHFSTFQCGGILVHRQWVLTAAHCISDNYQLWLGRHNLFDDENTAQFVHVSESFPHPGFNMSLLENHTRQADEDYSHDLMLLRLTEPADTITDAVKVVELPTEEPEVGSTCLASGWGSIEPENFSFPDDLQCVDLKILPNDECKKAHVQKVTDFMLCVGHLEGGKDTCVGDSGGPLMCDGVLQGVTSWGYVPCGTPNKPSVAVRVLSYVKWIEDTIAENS
T2 sequence (P06870 25-262): as above

SMILES	Menge des durch 1 ml Humanurin pro Min. freigesetzten Spaltproduktes R-NH2 in Nanomol (Urinkallikrein) [1]	Menge des durch 1 ml Humansputum pro Min. freigesetzten Spaltproduktes R-NH2 in Nanomol (Submandibularis-Kallikrein) [2]	Menge des durch 1 CU-Einheit Humanplasmin pro Min. freigesetzten Spaltproduktes R-NH2 in Nanomol (Humanplasmin) [3] [Nanomol]	Menge des durch 1 NIH-Einheit Thrombin pro Min. freigesetzten Spaltproduktes R-NH2 in Nanomol (Humanthrombin) [4]
N=C(N)NCCC[C@H](NC(=O)[C@H](Cc1ccc(O)cc1)NC(=O)[C@H](N)C1CCCCC1)C(=O)Nc1ccc([N+](=O)[O-])cc1 [Beispiel 42, 2HBr.H-D-CHG-Tyr-Arg-pNA] (H-[dChg]-Tyr-Arg-pNA)	0,49 Nanomol	3,9 Nanomol	969	2,0 Nanomol
N=C(N)NCCC[C@H](NC(=O)[C@H](Cc1ccc(O)cc1)NC(=O)[C@H](N)CC1CCCCC1)C(=O)Nc1ccc([N+](=O)[O-])cc1 [Beispiel 43, 2HBr.H-D-CHA-Tyr-Arg-pNA] (H-[dCha]-Tyr-Arg-pNA)	0,49 Nanomol	5,2 Nanomol	1407	8,3 Nanomol
CCC[C@@H](N)C(=O)N[C@@H](Cc1ccc(O)cc1)C(=O)N[C@@H](CCCNC(=N)N)C(=O)Nc1ccc([N+](=O)[O-])cc1 [Beispiel 44, 2HBr.H-D-Nval-Tyr-Arg-pNA] (H-[dNva]-Tyr-Arg-pNA)	0,42 Nanomol	4,9 Nanomol	1219	1,8 Nanomol
N=C(N)NCCC[C@H](NC(=O)[C@H](Cc1ccc(O)cc1)NC(=O)[C@H](N)Cc1ccccc1)C(=O)Nc1ccc([N+](=O)[O-])cc1 [Beispiel 46, 2HBr.H-D-Phe-Tyr-Arg-pNA] (H-[dF]-Tyr-Arg-pNA)	0,26 Nanomol	6,1 Nanomol	843	2,6 Nanomol
N=C(N)NCCC[C@H](NC(=O)[C@H](Cc1ccc(O)cc1)NC(=O)[C@H](N)c1ccccc1)C(=O)Nc1ccc([N+](=O)[O-])cc1 [Beispiel 47, 2HBr.H-D-Ph'Gly-Tyr-Arg-pNA] (H-[dPhg]-Tyr-Arg-pNA)	0,19 Nanomol	7,0 Nanomol	818	1,0 Nanomol
C[C@H](NC(=O)[C@H](N)C1CCCCC1)C(=O)N[C@@H](CCCNC(=N)N)C(=O)Nc1ccc([N+](=O)[O-])cc1 [Beispiel 48, 2HBr.H-D-CHG-Ala-Arg-pNA] (H-[dChg]-Ala-Arg-pNA)	0,72 Nanomol	9,5 Nanomol	239	158 Nanomol
C[C@H](NC(=O)[C@H](N)CC1CCCCC1)C(=O)N[C@@H](CCCNC(=N)N)C(=O)Nc1ccc([N+](=O)[O-])cc1 [Beispiel 49, 2HBr.H-D-CHA-Ala-Arg-pNA] (H-[dCha]-Ala-Arg-pNA)	0,66 Nanomol	10,6 Nanomol	389	163,5 Nanomol
CC(C)C[C@H](NC(=O)[C@H](N)Cc1ccccc1)C(=O)N[C@@H](CCCNC(=N)N)C(=O)Nc1ccc([N+](=O)[O-])cc1 [Beispiel 50, 2HBr.H-D-Phe-Leu-Arg-pNA] (H-[dF]-Leu-Arg-pNA)	0,61 Nanomol	6,8 Nanomol	313	14,4 Nanomol
CC(C)C[C@H](NC(=O)[C@H](N)CC1CCC(O)CC1)C(=O)N[C@@H](CCCNC(=N)N)C(=O)Nc1ccc([N+](=O)[O-])cc1 (stereo partly drawn) [Beispiel 51, 2HBr.H-D-CHT-Leu-Arg-pNA]	0,33 Nanomol	11,7 Nanomol	596	58,1 Nanomol
CC(C)C[C@H](NC(=O)[C@H](N)CC1CCCCC1)C(=O)N[C@@H](CCCNC(=N)N)C(=O)Nc1ccc([N+](=O)[O-])cc1 [Beispiel 52, 2HBr.H-D-CHA-Leu-Arg-pNA] (H-[dCha]-Leu-Arg-pNA)	0,64 Nanomol	8,8 Nanomol	555	57,6 Nanomol
CC(C)C[C@@H](N)C(=O)N[C@H](C(=O)N[C@@H](CCCNC(=N)N)C(=O)Nc1ccc([N+](=O)[O-])cc1)c1ccccc1 [Beispiel 53, 2HBr.H-D-Leu-Ph'Gly-Arg-pNA] (H-[dL]-[Phg]-Arg-pNA)	0,67 Nanomol	25,8 Nanomol	422	27,4 Nanomol
CCC[C@@H](N)C(=O)N[C@H](C(=O)N[C@@H](CCCNC(=N)N)C(=O)Nc1ccc([N+](=O)[O-])cc1)c1ccccc1 [Beispiel 54, 2HBr.H-D-Nval-Ph'Gly-Arg-pNA] (H-[dNva]-[Phg]-Arg-pNA)	0,58 Nanomol	22,9 Nanomol	382	19,2 Nanomol
C[C@@H](N)C(=O)N[C@H](C(=O)N[C@@H](CCCNC(=N)N)C(=O)Nc1ccc([N+](=O)[O-])cc1)c1ccccc1 [Beispiel 55, 2HBr.H-D-Ala-Ph'Gly-Arg-pNA] (H-[dA]-[Phg]-Arg-pNA)	0,42 Nanomol	23,5 Nanomol	141	4,2 Nanomol
N=C(N)NCCC[C@H](NC(=O)[C@@H](NC(=O)[C@H](N)CC1CCCCC1)c1ccccc1)C(=O)Nc1ccc([N+](=O)[O-])cc1 [Beispiel 56, 2HBr.H-D-CHA-Ph'Gly-Arg-pNA] (H-[dCha]-[Phg]-Arg-pNA)	0,64 Nanomol	29,4 Nanomol	559	120,2 Nanomol
N=C(N)NCCC[C@H](NC(=O)[C@@H](NC(=O)[C@H](N)CC1CCC(O)CC1)c1ccccc1)C(=O)Nc1ccc([N+](=O)[O-])cc1 (stereo partly drawn) [Beispiel 57, 2HBr.H-D-CHT-Ph'Gly-Arg-pNA]	0,45 Nanomol	31,1 Nanomol	591	112,1 Nanomol
